Values of other authors, collected in US20050025807A1, “Cured porous calcium phosphate material and uses thereof” (NATIONAL INSTITUTE OF ADVANCED INDUSTRIAL SCIENCE AND …, priority 2003, published 2005).

Details: agitation 200 to 300 rpm at 30° C.; calculated by Nernst-Noyes-Whitney formula

## CCC1(c2ccccc2)C(=O)NC(=O)NC1=O [phenobarbitol]
  Thickness of diffusion layer: about 30 microns
